Experimental findings from patent publication US20230181536A1, “ANTICANCER COMBINATION THERAPY WITH N-(1-ACRYLOYL-AZETIDIN-3-YL)-2-((1H-INDAZOL-3-YL)AMINO)METHYL)-1H-IMIDAZOLE-5-CARBOXAMIDE INHIBITOR OF KRAS-G12C” (TAIHO PHARMACEUTICAL CO., LTD., priority 2020, published 2023) are described below.

T1 sequence (P01116 1-169 isoform P01116-2 G12C): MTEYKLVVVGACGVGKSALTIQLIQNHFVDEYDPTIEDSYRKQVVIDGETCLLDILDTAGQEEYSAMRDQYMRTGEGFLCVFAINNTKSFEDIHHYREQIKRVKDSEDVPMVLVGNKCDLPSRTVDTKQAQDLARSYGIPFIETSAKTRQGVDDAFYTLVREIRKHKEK

This assay concerns the target T1, KRAS G12C (Homo sapiens, UniProt P01116, G12C).
T1 construct: KRAS G12C (amino acid region: 1-169)
In words: Inhibitory activity on the KRAS G12C nucleotide (GDP-GTP) exchange reaction. In kind it is biochemical. The conditions noted are these: Bodipy FL GDP-bound KRAS G12C 25 nM; preincubation at 25° C. for 4 hours; SOS1 100 nM, GppNHp 1 μM, reaction for 30 minutes. Here is the method: Test Example 2: Evaluation of Inhibitory Activity of Compounds on the KRAS G12C Nucleotide (GDP-GTP) Exchange Reaction
The inhibitory activity of compounds on the exchange reaction of GDP into GppNHp in Bodipy (trademark) FL-bound KRAS G12C was examined by fluorescence measurement using human recombinant KRAS G12C and SOS1 proteins.
For the preparation of KRAS G12C to which Bodipy FL GDP was bound, first, 50 µM KRAS G12C (amino acid region: 1-169) and 1 mM Bodipy FL GDP (Invitrogen, G22360) were incubated for 1 hour in a buffer (20 mM Tris-HCl (pH 7.5), 50 mM NaCl, 1 mM DTT) in ice in the presence of 2.5 mM EDTA. Thereafter, MgCl2 with a final concentration of 10 mM was added, and the mixture was incubated at room temperature for 30 minutes. The protein was allowed to pass through a NAP-5 column to remove free nucleotides and was used for compound evaluation.
For the measurement of the inhibitory activity of compounds on nucleotide exchange reaction, first, the compound of the disclosure was diluted stepwise with dimethyl sulfoxide (DMSO). Subsequently, a solution of the gradually diluted compound of the disclosure in DMSO (the final concentration of DMSO: 5%) and KRAS G12C (25 nM) bound to Bodipy FL GDP were added to a reaction buffer (20 mM Tris-HCl (pH 7.5), 100 mM NaCl, 1 mM MgCl2, 2 mM DTT, 0.1% Tween20), followed by preincubation at 25° C. for 4 hours. Thereafter, Son of Sevenless Homolog 1 (SOS1, amino acid region: 564-1049) and GppNHp (GMPPNP, Jena Bioscience GmbH, NU-401-50) were added such that their final concentration was 100 nM and 1 μM respectively, followed by reaction for 30 minutes. The change in fluorescence intensity of Bodipy FL (excitation wavelength: 485 nm, fluorescence wavelength: 520 nm) immediately after the start of reaction and after 30 minutes from the start of reaction was standardized. The signal value for only DMSO was determined to be 0% inhibition, and the signal value for no addition of GppNHp was determined to be 100% inhibition. The compound concentration at which 50% inhibition is achieved was determined to be the IC50 (nM) and was calculated.
One may read the IC50 as the concentration at which inhibition is half-maximal. A low value points to greater potency. `[2H]C([2H])(Nc1n[nH]c2cc(Cl)c(C(C)(C)C)cc12)c1nc(C)c(C(=O)NC2CN(C(=O)C=C)C2)n1C` [Example 5, N-(1-acryloylazetidin-3-yl)-2-(((5-(tert-butyl)-6-chloro-1H-indazol-3-yl)amino)methyl-d2)-1,4-dimethyl-1H-imidazole-5-carboxamide] showed an IC50 of 10 nM.

As for `C=CC(=O)N1CC(NC(=O)c2c(C)nc(CNc3n[nH]c4cc(Cl)c(C(C)(C)C)cc34)n2C)C(F)(F)C1` (stereo not shown) [Example 53, N-(1-acryloyl-4,4-difluoropyrrolidin-3-yl)-2-(((5-(tert-butyl)-6-chloro-1H-indazol-3-yl)amino)methyl)-1,4-dimethyl-1H-imidazole-5-carboxamide], half-maximal inhibition (IC50) was put at 42 nM.

The compound `C=CC(=O)N1CC(NC(=O)c2c(Cl)nc(CNc3n[nH]c4cc(Cl)c(C(C)(C)C)cc34)n2C2CCCCC2)C1` [Example 109, N-(1-acryloylazetidin-3-yl)-2-(((5-(tert-butyl)-6-chloro-1H-indazol-3-yl)amino)methyl)-4-chloro-1-cyclohexyl-1H-imidazole-5-carboxamide] had an IC50 of 23 nM. This IC50 lies about 1.8-fold lower than the previous one.

`C=CC(=O)N1CC(NC(=O)c2c(C(F)(F)F)nc(CNc3n[nH]c4cc(Cl)c(C(C)(C)C)cc34)n2C)C1` [Example 25, N-(1-acryloylazetidin-3-yl)-2-(((5-(tert-butyl)-6-chloro-1H-indazol-3-yl)amino)methyl)-1-methyl-4-(trifluoromethyl)-1H-imidazole-5-carboxamide] showed an IC50 of 163 nM.

In the case of `C=CC(=O)N1CC(NC(=O)c2c(Cl)nc(CNc3n[nH]c4cc(Cl)c(C(C)(C)C)cc34)n2[C@@H]2CCN(CC(F)F)[C@H]2C)C1` [Example 125, N-(1-acryloylazetidin-3-yl)-2-(((5-(tert-butyl)-6-chloro-1H-indazol-3-yl)amino)methyl)-4-chloro-1-((2S,3R)-1-(2,2-difluoroethyl)-2-methylpyrrolidin-3-yl)-1H-imidazole-5-carboxamide], the IC50 is 13 nM.

Take `C=CC(=O)N1CC(NC(=O)c2c(C)nc(CNc3n[nH]c4cc(C)c(C(C)(C)C)cc34)n2C)C1` [Example 41, N-(1-acryloylazetidin-3-yl)-2-(((5-(tert-butyl)-6-methyl-1H-indazol-3-yl)amino)methyl)-1,4-dimethyl-1H-imidazole-5-carboxamide]: the IC50 was determined as 14 nM.

Take `C=CC(=O)N1CC(NC(=O)c2c(Cl)nc(CNc3n[nH]c4cc(Cl)c(C(C)(C)C)cc34)n2C2CCCN(C)C2)C1` (stereo not shown) [Example 118, N-(1-acryloylazetidin-3-yl)-2-(((5-(tert-butyl)-6-chloro-1H-indazol-3-yl)amino)methyl)-4-chloro-1-(1-methylpiperidin-3-yl)-1H-imidazole-5-carboxamide]: 5 nM corresponded to half-maximal inhibition (IC50).

`C=CC(=O)N1CC(NC(=O)c2c(Cl)nc(CNc3n[nH]c4cc(Cl)c(C(C)(C)C)cc34)n2C2CCCN(CC(F)F)C2)C1` (stereo not shown) [Example 117, N-(1-acryloylazetidin-3-yl)-2-(((5-(tert-butyl)-6-chloro-1H-indazol-3-yl)amino)methyl)-4-chloro-1-(1-(2,2-difluoroethyl)piperidin-3-yl)-1H-imidazole-5-carboxamide] showed an IC50 of 9 nM.

With `C=CC(=O)N1CC(NC(=O)c2c(CC)nc(CNc3n[nH]c4cc(Cl)c(C(C)(C)C)cc34)n2C)C1` [Example 31, N-(1-acryloylazetidin-3-yl)-2-(((5-(tert-butyl)-6-chloro-1H-indazol-3-yl)amino)methyl)-4-ethyl-1-methyl-1H-imidazole-5-carboxamide], the IC50 was 642 nM.

Regarding `C=CC(=O)N1C[C@H](NC(=O)c2c(C)nc(CNc3n[nH]c4cc(Cl)c(C(C)(C)C)cc34)n2C)[C@@H](F)C1` [Example 64, N-((3S,4S)-1-acryloyl-4-fluoropyrrolidin-3-yl)-2-(((5-(tert-butyl)-6-chloro-1H-indazol-3-yl)amino)methyl)-1,4-dimethyl-1H-imidazole-5-carboxamide], inhibition was half-maximal at 13 nM (IC50).
